Results taken from patent publication US20090275583A1, “ANTIVIRAL COMPOUNDS AND USE THEREOF” (Myriad Genetics, Incorporated, priority 2006, published 2009).
pEC50, pIC50: −log10 of the molar value. Like-named read-outs stand apart in the source and are kept apart here.

Tests used:
[1] = system: HIV-1NL4-3; assay: P4-MAGI assay; format: cell-based
Procedure, shortened: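 Cytotoxicity (TC50, 50% growth inhibition) came from WST-1 in uninfected cells. For antiviral activity, compound at rising concentrations was added immediately after HIV-1NL4-3 inoculation (MOI 1, DEAE-Dextran) of P4 cells, CD4+ HeLa cells expressing β-galactosidase from a minimal HIV-1 LTR upon infection.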

[2] = system: HIV-1 laboratory strain, NL4-3; assay: MT-4 cytoprotection assay; format: cell-based
Procedure, shortened: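 MT-4 cells mock- or batch-infected with NL4-3 (MOI 0.0005) for 2 h, washed, then cultured 4 days with increasing compound concentrations. Viability read by WST-1 tetrazolium reduction: cytoprotection in infected cells, toxicity in mock-infected cells.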

[3] = Human immunodeficiency virus 1, 24 h, P4 cells, 24 hour incubation, β-galactosidase expression, read-out: P4-MAGI IC50
[4] = Human immunodeficiency virus 1, text statement, less than about 100 nm, read-out: P4-MAGI assay IC50
[5] = Human immunodeficiency virus 1, NL43, MT4, 96 h, MT-4 cells, four days incubation, WST-1 readout, read-out: MT4 EC50
[6] = Human immunodeficiency virus 1, NL43, less than about 100 nm, read-out: MT-4 assay EC50 (concentration of compound that reduces the virus induced cytopathic effect by 50%)

| Structure (SMILES) | pIC50 [1, 3] | pIC50 [1, 4] | pEC50 [2, 5] | pEC50 [2, 6] |
| --- | --- | --- | --- | --- |
| C=C(C)[C@@H]1CC[C@]2(C(=O)NCc3cccc(C(=O)NCc4ccc(OCCCN5CCOCC5)c(C(=O)O)c4)c3)CC[C@]3(C)C(CCC4[C@@]5(C)CC[C@H](O)C(C)(C)C5CC[C@]43C)C12 (some centres unmarked) [Example 124] | 7.55 | > 7.00 | 8.10 | > 7.00 |
| C=C(C)[C@@H]1CC[C@]2(C(=O)NCc3cccc(C(=O)NCc4ccc(OCCCO)c(C(=O)O)c4)c3)CC[C@]3(C)C(CCC4[C@@]5(C)CC[C@H](O)C(C)(C)C5CC[C@]43C)C12 (some centres unmarked) [Example 125] | 7.38 | > 7.00 | 7.25 | > 7.00 |
| C=C(C)[C@@H]1CC[C@]2(C(=O)NCCc3cccc(-c4nc5ccc(C(=O)O)cc5[nH]4)c3)CC[C@]3(C)C(CCC4[C@@]5(C)CC[C@H](O)C(C)(C)C5CC[C@]43C)C12 (some centres unmarked) [Example 130] | 7.41 | – | 6.64 | – |
| C=C(C)[C@@H]1CC[C@]2(C(=O)NCCc3cccc(C(=O)NCc4ccc(C(=O)N[C@@H](CCC(=O)O)C(=O)O)cc4)c3)CC[C@]3(C)C(CCC4[C@@]5(C)CC[C@H](O)C(C)(C)C5CC[C@]43C)C12 (some centres unmarked) [Example 133] | 7.47 | > 7.00 | 7.08 | > 7.00 |
| C=C(C)[C@@H]1CC[C@]2(C(=O)NCCc3cccc(C(=O)NCc4ccc(C(=O)N(C)CCN(C)C)cc4)c3)CC[C@]3(C)C(CCC4[C@@]5(C)CC[C@H](O)C(C)(C)C5CC[C@]43C)C12 (some centres unmarked) [Example 134] | 7.16 | > 7.00 | 6.62 | – |
| C=C(C)[C@@H]1CC[C@]2(C(=O)NCCc3cccc(C(=O)NCc4ccc(C(=O)NCCN(C)C)cc4)c3)CC[C@]3(C)C(CCC4[C@@]5(C)CC[C@H](O)C(C)(C)C5CC[C@]43C)C12 (some centres unmarked) [Example 135] | 7.15 | > 7.00 | 6.27 | – |
| C=C(C)[C@@H]1CC[C@]2(C(=O)NCCc3cccc(C(=O)NCc4ccc(C(=O)NCCN5CCOCC5)cc4)c3)CC[C@]3(C)C(CCC4[C@@]5(C)CC[C@H](O)C(C)(C)C5CC[C@]43C)C12 (some centres unmarked) [Example 136] | 7.94 | > 7.00 | 7.85 | > 7.00 |
| C=C(C)[C@@H]1CC[C@]2(C(=O)NCCc3cccc(C(=O)NCc4ccc(C(=O)N(C)CCc5ccccn5)cc4)c3)CC[C@]3(C)C(CCC4[C@@]5(C)CC[C@H](O)C(C)(C)C5CC[C@]43C)C12 (some centres unmarked) [Example 137] | 7.97 | > 7.00 | 7.98 | > 7.00 |
| C=C(C)[C@@H]1CC[C@]2(C(=O)NCc3cccc(C(=O)NCCCCC(=O)O)c3)CC[C@]3(C)C(CCC4[C@@]5(C)CCC(=O)C(C)(C)C5CC[C@]43C)C12 (some centres unmarked) [Example 141] | 6.80 | – | 5.82 | – |
| C=C(C)[C@@H]1CC[C@]2(CNCc3cccc(C(=O)NCc4cccc(C(=O)O)c4)c3)CC[C@@]3(C)C(CCC4[C@@]5(C)CC[C@H](O)C(C)(C)C5CC[C@]43C)C12 (some centres unmarked) [Example 143] | 6.92 | – | 5.89 | – |
| C=C(C)[C@@H]1CC[C@]2(C(=O)NCCc3cccc(C(=O)NC(Cc4ccc(OCC(=O)O)cc4)C(=O)O)c3)CC[C@]3(C)C(CCC4[C@@]5(C)CC[C@H](O)C(C)(C)C5CC[C@]43C)C12 (some centres unmarked) [Example 146] | 6.71 | – | 5.48 | – |
| C=C(C)[C@@H]1CC[C@]2(C(=O)NCCc3cccc(C(=O)NCCc4ccc(O)cc4)c3)CC[C@]3(C)C(CCC4[C@@]5(C)CC[C@H](O)C(C)(C)C5CC[C@]43C)C12 (some centres unmarked) [Example 147] | 7.58 | – | 7.52 | – |
| C=C(C)[C@@H]1CC[C@]2(C(=O)NCCc3cccc(C(=O)NCc4ccc(S(=O)(=O)NCCN5CCOCC5)cc4)c3)CC[C@]3(C)C(CCC4[C@@]5(C)CC[C@H](O)C(C)(C)C5CC[C@]43C)[C@@H]12 (some centres unmarked) [Example 148] | 8.22 | – | 7.28 | – |
| C=C(C)[C@@H]1CC[C@]2(C(=O)NCCc3cccc(C(=O)NCc4ccc(N)cn4)c3)CC[C@]3(C)C(CCC4[C@@]5(C)CC[C@H](O)C(C)(C)C5CC[C@]43C)[C@@H]12 (some centres unmarked) [Example 149] | 7.64 | – | 7.06 | – |
| C=C(C)[C@@H]1CC[C@]2(C(=O)NCCc3cccc(C(=O)NCc4ccccn4)c3)CC[C@]3(C)C(CCC4[C@@]5(C)CC[C@H](O)C(C)(C)C5CC[C@]43C)C12 (some centres unmarked) [Example 150] | 7.62 | – | 6.91 | – |
| C=C(C)[C@@H]1CC[C@]2(C(=O)NCCc3cccc(C(=O)NCCc4c[nH]c5ccccc45)c3)CC[C@]3(C)C(CCC4[C@@]5(C)CC[C@H](O)C(C)(C)C5CC[C@]43C)C12 (some centres unmarked) [Example 151] | 7.07 | – | 6.49 | – |
| C=C(C)[C@@H]1CC[C@]2(C(=O)NCCc3cccc(C(=O)NCc4nc(C(=O)OC)co4)c3)CC[C@]3(C)C(CCC4[C@@]5(C)CC[C@H](O)C(C)(C)C5CC[C@]43C)C12 (some centres unmarked) [Example 152] | 7.44 | – | 7.85 | – |

| Structure (SMILES) | pIC50 [1, 3] | pIC50 [1, 4] | pEC50 [2, 5] | pEC50 [2, 6] |
| --- | --- | --- | --- | --- |
| C=C(C)[C@@H]1CC[C@]2(C(=O)NCCc3cccc(C(=O)NCc4nc(C(=O)O)co4)c3)CC[C@]3(C)C(CCC4[C@@]5(C)CC[C@H](O)C(C)(C)C5CC[C@]43C)C12 (some centres unmarked) [Example 153] | 7.35 | – | 7.85 | – |
| C=C(C)[C@@H]1CC[C@]2(C(=O)NCCc3cccc(C(=O)NCc4cccc(C(=O)OC)n4)c3)CC[C@]3(C)C(CCC4[C@@]5(C)CC[C@H](O)C(C)(C)C5CC[C@]43C)C12 (some centres unmarked) [Example 154] | 7.47 | – | 8.10 | – |
| C=C(C)[C@@H]1CC[C@]2(C(=O)NCCc3cccc(C(=O)NCc4ccc(C(=O)OC)o4)c3)CC[C@]3(C)C(CCC4[C@@]5(C)CC[C@H](O)C(C)(C)C5CC[C@]43C)C12 (some centres unmarked) [Example 155] | 7.59 | – | 7.77 | – |
| C=C(C)[C@@H]1CC[C@]2(C(=O)NCCc3cccc(C(=O)NCc4ccc(C(=O)O)o4)c3)CC[C@]3(C)C(CCC4[C@@]5(C)CC[C@H](O)C(C)(C)C5CC[C@]43C)C12 (some centres unmarked) [Example 156] | 7.29 | – | 8.10 | – |
| C=C(C)[C@@H]1CC[C@]2(C(=O)NCCc3cccc(C(=O)NCc4cnc(C)cn4)c3)CC[C@]3(C)C(CCC4[C@@]5(C)CC[C@H](O)C(C)(C)C5CC[C@]43C)C12 (some centres unmarked) [Example 157] | 7.49 | – | 6.95 | – |
| C=C(C)[C@@H]1CC[C@]2(C(=O)NCCc3cccc(C(=O)N[C@@H](C)c4ccccn4)c3)CC[C@]3(C)C(CCC4[C@@]5(C)CC[C@H](O)C(C)(C)C5CC[C@]43C)C12 (some centres unmarked) [Example 158] | 6.60 | – | < 5.00 | – |
| C=C(C)[C@@H]1CC[C@]2(C(=O)NCCc3cccc(C(=O)NC(C)(C)c4ccccn4)c3)CC[C@]3(C)C(CCC4[C@@]5(C)CC[C@H](O)C(C)(C)C5CC[C@]43C)C12 (some centres unmarked) [Example 159] | 6.60 | – | < 5.00 | – |
| C=C(C)[C@@H]1CC[C@]2(C(=O)NCCc3cccc(C(=O)NCc4ccc(C(=O)N[C@@H](C(=O)O)[C@H](C)O)cc4)c3)CC[C@]3(C)C(CCC4[C@@]5(C)CC[C@H](O)C(C)(C)C5CC[C@]43C)C12 (some centres unmarked) [Example 160] | 7.82 | – | 7.41 | – |
| C=C(C)[C@@H]1CC[C@]2(C(=O)NCCc3cccc(C(=O)NCc4ccc(C(=O)N[C@@H](C(=O)OC)[C@H](C)O)cc4)c3)CC[C@]3(C)C(CCC4[C@@]5(C)CC[C@H](O)C(C)(C)C5CC[C@]43C)C12 (some centres unmarked) [Example 161] | 7.82 | – | 7.82 | – |
| C=C(C)[C@@H]1CC[C@]2(C(=O)NCCc3cccc(C(=O)NCc4ccc(C(=O)N[C@H](Cc5ccc(O)cc5)C(=O)O)cc4)c3)CC[C@]3(C)C(CCC4[C@@]5(C)CC[C@H](O)C(C)(C)C5CC[C@]43C)C12 (some centres unmarked) [Example 164] | 8.15 | – | 8.15 | – |
| C=C(C)[C@@H]1CC[C@]2(C(=O)NCCc3cccc(C(=O)NCc4ccc(C(=O)N[C@H](Cc5ccc(O)cc5)C(=O)OC)cc4)c3)CC[C@]3(C)C(CCC4[C@@]5(C)CC[C@H](O)C(C)(C)C5CC[C@]43C)C12 (some centres unmarked) [Example 165] | 7.89 | – | 7.70 | – |
| C=C(C)[C@@H]1CC[C@]2(C(=O)NCCc3cccc(C(=O)NCc4ccc(C(=O)N[C@H](Cc5cc6ccccc6[nH]5)C(=O)O)cc4)c3)CC[C@]3(C)C(CCC4[C@@]5(C)CC[C@H](O)C(C)(C)C5CC[C@]43C)C12 (some centres unmarked) [Example 166] | 7.66 | – | 7.89 | – |
| C=C(C)[C@@H]1CC[C@]2(C(=O)NCCc3cccc(C(=O)NCc4ccc(C(=O)N[C@H](Cc5cc6ccccc6[nH]5)C(=O)OC)cc4)c3)CC[C@]3(C)C(CCC4[C@@]5(C)CC[C@H](O)C(C)(C)C5CC[C@]43C)C12 (some centres unmarked) [Example 167] | 7.66 | – | 7.72 | – |
| C=C(C)[C@@H]1CC[C@]2(C(=O)NCCc3cccc(C(=O)NCc4ccc(C(=O)N[C@@H](C(=O)O)C(C)C)cc4)c3)CC[C@]3(C)C(CCC4[C@@]5(C)CC[C@H](O)C(C)(C)C5CC[C@]43C)C12 (some centres unmarked) [Example 168] | 7.85 | – | 8.22 | – |
| C=C(C)[C@@H]1CC[C@]2(C(=O)NCCc3cccc(C(=O)NCc4ccc(C(=O)N[C@@H](C(=O)OC)C(C)C)cc4)c3)CC[C@]3(C)C(CCC4[C@@]5(C)CC[C@H](O)C(C)(C)C5CC[C@]43C)C12 (some centres unmarked) [Example 169] | 7.70 | – | 8.05 | – |
| C=C(C)[C@@H]1CC[C@]2(C(=O)NCCc3cccc(C(=O)NCc4ccc(C(=O)N[C@H](Cc5c[nH]cn5)C(=O)OC)cc4)c3)CC[C@]3(C)C(CCC4[C@@]5(C)CC[C@H](O)C(C)(C)C5CC[C@]43C)C12 (some centres unmarked) [Example 170] | 8.00 | – | 8.30 | – |
| C=C(C)[C@@H]1CC[C@]2(C(=O)NCCc3cccc(C(=O)NCc4ccc(C(=O)NCCC5CCCN5C)cc4)c3)CC[C@]3(C)C(CCC4[C@@]5(C)CC[C@H](O)C(C)(C)C5CC[C@]43C)C12 (some centres unmarked) [Example 171] | 7.30 | – | 7.96 | – |
